Laboratory results: article PMC12040169 (PLOS Biology, 2025)

experiment: in vitro; details: human, hela cells, % viability

SMILES | viability at 28.5 h, 10 µM
CCOC(=O)CCCNC(=O)N(CC)Cc1ccccc1 [CBK155252] | 106%
COc1ncc(-c2nccnc2Oc2cccc(NC(C)=O)c2)c(OC)n1 [CBK106747] | 89.6%
O=C(O)c1cccc(CSc2nnc(Cc3ccccc3)[nH]2)c1 [CBK268029] | 94.1%
O=C(COC(=O)c1cc(O)nc2ccccc12)c1ccccc1Cl [CBK265524] | 95.2%
O=C(O)c1cn(CCN2C(=O)c3ccccc3C2=O)nn1 [CBK286543] | 91%
Cc1nnc(Sc2nc3ccccc3nc2N2CCCC2)s1 [CBK093751] | 89.1%
O=C(O)CCc1ccc(-c2ccc(N3CCN(CCN4CCCC4)CC3)nc2)cc1 [CBK037796] | 103%
Cc1n[nH]c(C)c1CNC(=O)CCc1ccc(Cl)cc1 [CBK283185] | 95%
Cc1cc(I)ccc1NCC(=O)NN [CBK261738] | 91.1%
O=C(Nc1ccc(Cl)cc1)N1CCC(n2c(=O)[nH]c3ccccc32)CC1 [CBK149850] | 98.5%
O=C(C[S+]([O-])c1nc2ccccc2[nH]1)N1CCOCC1 (centres unmarked) [CBK016397] | 98.1%
CC(C)(C)OC(=O)N1CCC(C(=O)NCc2ccccn2)CC1 [CBK305696] | 103%
Cn1cc(CN2CCC(C(=O)NC(c3ccc4c(c3)OCO4)c3ccccn3)CC2)c2ccccc21 (centres unmarked) [CBK148183] | 94%
CC1(C)[C@H](Cc2cc(COc3ccccc3)on2)C[C@@H]1NC1CCOCC1 [CBK289694] | 96.5%
O=C(c1ccco1)N1CCN(C(=O)C(c2ccccc2)c2ccccc2)CC1 [CBK144462] | 88.9%
O=C(c1ccccc1Br)N1CCN(c2ccc([N+](=O)[O-])c(NCc3cccnc3)c2)CC1 [CBK265735] | 100%
Cc1cccc(C(=O)NNC(=O)c2cccc(Cl)c2)c1 [CBK261676] | 107%
O=C(O)C1CCCCC1C(=O)NCCN1CCCCC1 (centres unmarked) [CBK287031] | 91.4%
CCCCNC(=O)CCn1c(=O)[nH]c2ccccc2c1=O [CBK287824] | 97%
N#CCNS(=O)(=O)c1ccc(OC(F)(F)F)cc1 [CBK044841] | 111%
CN1CCC(N2CCN(C(=O)c3ccc(-c4cccc(C(F)(F)F)c4)o3)CC2)CC1 [CBK149085] | 91.2%
O=C(NCCc1ccccc1)Nc1cc2cccnc2c(Br)n1 [CBK063283] | 95.9%

SMILES | viability at 28.5 h, 10 µM
CCCC(C(=O)NCCN(C)C1CCCCC1)n1nc(C)cc1C (centres unmarked) [CBK282039] | 96.4%
CS(=O)(=O)c1nsc(Cl)n1 [CBK007229] | 87.9%
O=C(O)Cc1ccc(NC(=O)c2cccc(NC(=O)c3ccco3)c2)cc1 [CBK268606] | 96.7%
O=C(c1cnccc1C(F)(F)F)N1CCc2ccccc21 [CBK200401] | 112%
Cc1nc(-c2ccccc2)sc1C(=O)C1=C(O)C(=O)N(CCN2CCOCC2)C1c1cccs1 (centres unmarked) [CBK266520] | 102%
COc1cnc(-c2ccc(Cl)cc2Cl)c(NC(=O)Cc2ccccc2)n1 [CBK145398] | 92.8%
CCCn1cc(NC(=O)NCc2cc3c(cc2OC)CCC3)nn1 [CBK306614] | 86.4%
O=C(CC1S/C(=N/N=C/c2ccc(-c3cc([N+](=O)[O-])ccc3Cl)o2)NC1=O)Nc1ccccc1 (centres unmarked) [CBK264592] | 95.3%
COC(=O)c1sccc1NC(=O)c1ccncc1 [CBK265438] | 85.4%
Cc1nn(CC(=O)NC2CCC2)c(=O)c2cc3ccsc3n12 [CBK284103] | 103%
Cc1cc(CNS(=O)(=O)c2ccc(-c3ccon3)s2)no1 [CBK062276] | 103%
CC1(C)CCCC2=C1CC(C(=O)O)C(C(=O)O)C2 (centres unmarked) [CBK272329] | 97.4%
O=C(Cn1cc(C(=O)Nc2cc(F)ccc2N2CCCC2)ccc1=O)NC1CCCCC1 [CBK285981] | 102%
O=C(c1cccnc1)N1CCN(CCN2C(=O)C3C4C=CC(C4)C3C2=O)CC1 (centres unmarked) [CBK263639] | 98.2%
COC(=O)c1ccc(NC(=S)NC(=O)c2cncc(Br)c2)cc1 [CBK099257] | 87.9%
COc1cccc(CNc2nccnc2-c2ccoc2)c1OC [CBK036782] | 105%
Cc1nc2c(c(=O)[nH]1)CC[C@@H]1CN(C(=O)c3occ4ccccc34)C[C@H]21 [CBK284408] | 101%
Cc1ccc(OCC(=O)Nc2ccccc2CO)cc1 [CBK263600] | 88.7%
Nc1nc(N)nc(-c2ccc(-c3nc(N)nc(N)n3)cc2)n1 [CBK261494] | 90.4%
CCNC(=O)C1(Cc2ccccc2-c2ccccc2)CCN(C(=O)c2cccc(F)c2)CC1 [CBK285689] | 88.7%
Cc1onc(-c2ccccc2)c1C(=O)NC(=S)Nc1sc2c(c1C#N)CCC2 [CBK267492] | 89.1%
Cc1cc(Cl)ccc1NC(=O)CN1CCN(Cc2ccccc2)CC1 [CBK269438] | 93.6%

SMILES | viability at 28.5 h, 10 µM
CCCCC1CCC(C(=O)O)CC1 (centres unmarked) [CBK122493] | 82.4%
Cc1nc2ccc(Br)cc2c(=O)n1Cc1cccs1 [CBK085890] | 89.7%
CC(C)[C@@H](CO)Nc1nc(-c2cccc(Br)c2)cnc1N [CBK063758] | 99.5%
N#C/C(=C/c1c[nH]c2ccccc12)c1n[nH]c(N)c1C#N [CBK262893] | 70.4%
O=S(=O)(NC[C@H]1C[C@@H]2CC[N@]1C[C@@H]2CN1CCOCC1)c1cccs1 [CBK288759] | 90.7%
O=C(O)Cc1ccc(NS(=O)(=O)c2ccc(F)cc2)cc1 [CBK269981] | 94.2%
Cc1noc(C)c1CC(=O)N1CCc2[nH]c3ccccc3c2C1 [CBK281848] | 97.8%
NNC(=O)C(NC(=O)c1ccccc1)c1n[nH]c(=O)c2ccccc12 (centres unmarked) [CBK261144] | 92.9%
C/N=C1/c2cn3ccccc3c2CCN1C [CBK022058] | 116%
COC(=O)[C@H]1CN(C(=O)c2cn(C)nc2C)C[C@@H]1c1ccc(F)cc1 [CBK283720] | 96.6%
O=C(CCN1CCCCC1)N1CCc2ccccc21 [CBK200413] | 91.1%
Nc1nonc1-n1nnc(CN2CCCCC2)c1CN1CCCCC1 [CBK270636] | 82.3%
Brc1c(OCc2ccccc2)ccc2[nH]ccc12 [CBK160845] | 96.5%
CN(CC(=O)Nc1cccnc1N1CCNCC1)C(=O)c1ccccc1 [CBK028264T] | 95.8%
CNC(=O)c1sc2ccccc2c1C1CCN(Cc2cnn(-c3ccc(F)cc3)c2)C1 (centres unmarked) [CBK285882] | 84.1%
O=C(NC1=NCCS1)c1cc2ccccc2o1 [CBK058927] | 80.8%
Cc1ccc(C)c(C2C(C(=O)c3ccccc3Cl)=C(O)C(=O)N2c2ccc(CC(=O)O)cc2)c1 (centres unmarked) [CBK297723] | 90.7%
O=C(Nc1ccc(N2CCN(C(=O)c3ccccc3F)CC2)cc1)c1nc[nH]n1 [CBK269497] | 107%
N#Cc1c(Oc2cccc3cccnc23)cccc1C(F)(F)F [CBK002728] | 105%
Cc1ccc2c(c1)C(=O)NCC1(CCN(Cc3ccccc3)CC1)O2 [CBK285048] | 104%
O=C(Cn1c(=O)oc2ccccc21)Nc1ccc(N2CCOCC2)c(Cl)c1 [CBK270079] | 102%
